Test results: patent US9314507B2, “Methods of treatment of heart failure with natriuretic peptides” (Capricor Therapeutics, INC., priority 2010, dated 2016)
Where a SMILES comes first, the peptide text is derived from it. Bridges are numbered along the chain shown (N, C = ends).

Columns and labels:
Type in all cases: in vivo, human
[1] = test system: patients with chronic heart failure; assay: Dosing study (fixed and weight-based dose)
Protocol: In a dosing study, CD-NP was administered to patients with chronic heart failure. The amount of CD-NP administered was either a set amount (in μg/hr) regardless of the patient's weight, or was varied based on the patient's weight.
In FIG. 10a, the steady state average (SS Avg) serum concentration of CD-NP in pg/mL is plotted against patient weight for patients who received low (18 μg/hr) and medium (24 μg/hr) doses of CD-NP.
The placebo group had no significant change in SBP over the course of the study. […] In one aspect, the SBP decrease for doses 24 μg/hr is insufficient to cause a risk of hypotension. […] The weight-based group received a dose that depended on the patients weight. Using PK data, for example the linear fit of data from FIG. 10a, the dose was adjusted to give a predicted serum concentration of 500 pg/mL.
As depicted in FIG. 12, the concentration of CD-NP in serum vs. time after initial dosing for patients on a low dose and a medium dose.

healthy subjects = assay: clinical
clinical = settings: human, in vivo; read-out: terminal elimination half-life
[2] = test system: patients hospitalized with acute heart failure requiring hemodynamic monitoring; assay: Hemodynamic Monitoring Phase 2a clinical study (Hemo Study, NIL-CDNP-CT003)
Protocol: Another exemplary study using CD-NP was a multi-center, open-label Phase 2a clinical study of CD-NP in patients hospitalized with acute heart failure requiring hemodynamic monitoring (Hemo Study, or NIL-CDNP-CT003). This study considered the efficacy of 8 hours of intravenous administration of CD-NP on changes in cardiac output and pulmonary capillary wedge pressure (PCWP, or wedge pressure).
Stabilized acute heart failure patients requiring hemodynamic monitoring, and receiving standard-of-care heart failure medications (i.e., furosemide infusion), received an initial 8-hour CD-NP infusion followed by a 14-hour washout period, and then a further 8-hour CD-NP infusion. Hemodynamic measurements were collected for an additional 8 hours and safety measurements were collected for a further 2 days.
Patients were enrolled into one of two sequential cohorts (Cohort A and B) which could include up to 10 evaluable patients in each cohort. Cohort A received 8 hours of 3 ng/kg/min CD-NP, followed by a 14 hour wash-out period, and then 8 hours of 10 ng/kg/min CD-NP. Cohort B received 8 hours of 1 ng/kg/min CD-NP, followed by a 14 hour wash-out period, and then 8 hours of 20 ng/kg/min CD-NP.
The first 2 hours, (−2 to 0) represent time before administration of CD-NP. Hours 0 to 38 represent time during the CD-NP dosing regimen discussed above.

Question: What does the source list for CC[C@H](C)[C@@H]1NC(=O)[C@H](CCCNC(=N)N)NC(=O)[C@H](CC(=O)O)NC(=O)[C@H](CCCCN)NC(=O)[C@H](CC(C)C)NC(=O)CNC(=O)[C@H](Cc2ccccc2)NC(=O)[C@@H](NC(=O)CNC(=O)[C@H](CCCCN)NC(=O)[C@H](CO)NC(=O)[C@H](CC(C)C)NC(=O)CN)CSSC[C@@H](C(=O)N2CCC[C@H]2C(=O)N[C@@H](CO)C(=O)N[C@@H](CC(C)C)C(=O)N[C@@H](CCCNC(=N)N)C(=O)N[C@@H](CC(=O)O)C(=O)N2CCC[C@H]2C(=O)N[C@@H](CCCNC(=N)N)C(=O)N2CCC[C@H]2C(=O)N[C@@H](CC(N)=O)C(=O)N[C@@H](C)C(=O)N2CCC[C@H]2C(=O)N[C@@H](CO)C(=O)N[C@H](C(=O)N[C@@H](CO)C(=O)N[C@@H](C)C(=O)O)[C@@H](C)O)NC(=O)CNC(=O)[C@H](CC(C)C)NC(=O)CNC(=O)[C@H](CO)NC(=O)[C@H](CCSC)NC(=O)[C@H](CO)NC(=O)CNC1=O [CD-NP, cenderitide] (H-GLSKGCFGLKDRIGSMSGLGCPSLRDPRPNAPSTSA-OH; disulfide 6-21; N-terminus and C-terminus assumed)?
Answer: area under the curve (AUC) vs patient weight ([1]; FIG. 10b): decreases with increasing patient weight; change in SBP ([1]; high dose 36 μg/hr (600 ng/min)): decrease in SBP that could possibly cause hypotension; steady state average (SS Avg) serum concentration vs patient weight ([1]; low (18 μg/hr) and medium (24 μg/hr) doses, FIG. 10a): decreases with increasing patient weight; orthostatic hypotension immediately after the infusion (healthy subjects; 17.5 ng/kg/min, vs placebo arm): more events were observed in the CD-NP arm; subjects with symptomatic hypotension in association with orthostatic challenge immediately post-infusion (healthy subjects; 25 ng/kg/min): two out of four; symptomatic hypotension during CD-NP dosing (healthy subjects; during dosing): did not induce symptomatic hypotension; maximum tolerated dose (MTD) (healthy subjects; healthy subjects, 10, 17.5 and 25 ng/kg/min tested): 17.5 ng/kg/min; time to steady state of natriuretic peptide (healthy subjects; infusion): 1 to 2 h; half-life (clinical): 15 to 20 min; SBP below 90 mmHg ([2]; 20 ng/kg/min, 8 h infusion, FIG. 4b): one patient had a transient dip in SBP below 90 mmHg; well tolerated dose ([2]; previous studies, co-administered with furosemide to stabilized heart failure patients): up to 20 ng/kg/min
